Source: US9446015B2, “Quinone based nitric oxide donating compounds for ophthalmic use” (NICOX SCIENCE IRELAND, priority 2012, dated 2016)

Tests used:
[1] = test system: rat L-NAME-induced hypertension; experiment: Systolic blood pressure in rat L-NAME-induced hypertension, single oral dose; format: in vivo; details: Comp. (6) 100 mg/kg oral; 3 hours
Protocol: To assess the in vivo NO-dependent activity, Compound (6) was evaluated for systolic blood pressure (SBP) reduction efficacy in a rat model of NO-deprivation induced by L-NAME and compared with 5-ISMN.
(§1) Fasted male SD rats (250-300 g, n=3-5 per group), obtained from Harlan Italy (Correzzana, Milan, Italy) were orally treated with tested compounds or vehicle (DMSO:Methocel 1% 2/98 v/v) in a total volume of 4 ml/kg by gavage. At each time point (1, 3, 6 and 24 h) animals were deeply anesthetized with Zoletil® 100 (3 mg/kg), given intramuscularly. Thereafter, a pressure catheter (Samba Sensors, Harvard Apparatus, UK) was introduced into the common carotid artery for central blood pressure measurement. Pressure transducer was connected to a personal computer, in order to allow real time monitor of the pressure tracing. After 10 minutes of basal recording, L-NAME (50 mg/kg) was administered intraperitoneally and the effect on SBP monitored. When the SBP stabilized (5 minutes without variations) the recording was stopped. To further confirm that functional activity was NO-dependent, at each time point blood ^15N-nitrite levels were measured following the procedure described in Example 12.

[2] = test system: rat L-NAME-induced hypertension; experiment: In vivo tolerance evaluation, L-NAME-induced hypertension after 5-day oral treatment; details: 5-ISMN 30 mg/kg, compound (6) 100 mg/kg
Protocol: as §1
To investigate whether the compound (6) induced nitrate tolerance, as observed for most of the drugs belonging to the nitrate class, the L-NAME-induced hypertension rat model described in Example 7 was performed following a repeated oral treatment. Rats were orally treated for 5 days with vehicle, compound (6) (100 mg/kg) or 5-ISMN (30 mg/kg). […] The experiments were performed at the peak effect (1 hour for 5-ISMN and 3 hours for Compound (6)), results are reported in Table 3.

[3] = test system: hypertonic saline-induced IOP increase in rabbits; experiment: IOP lowering activity in hypertonic saline-induced IOP increase in rabbits; format: in vivo, New Zealand White rabbits
From the text: Intraocular pressure (IOP) lowering activity in hypertonic saline-induced IOP increase in rabbits.
This animal model of elevated IOP was used for assessing the intraocular pressure (IOP) lowering activities of some compounds of the invention, timolol, dorzolamide and 5-isosorbide mononitrate.
• compounds (6), (20) and (25) • timolol and dorzolamide that are drugs commonly used for the treatment of glaucoma and ocular hypertension. • Isosorbide mononitrate (5-ISMN) that is a commonly used nitric oxide donor drug.
Timolol, dorzolamide and 5-ISMN were tested as reference compounds. Adults male New Zealand White rabbits weighting 1.8-2.0 Kg were used in the experiments.
IOP was measured using a Tono-Pen XL prior to hypertonic saline injection (basal) and at 30, 60, 120 and 240 min thereafter. Vehicle (5% cremophor-EL; 0.3% DMSO; 0.2 mg/ml BAK in PBS pH 6.0) and all the tested compounds dissolved in the vehicle were instilled as eye drops immediately after hypertonic saline injection. Eyes were randomly assigned to different treatment groups. Vehicle and the tested compounds were directly instilled into the conjunctiva pocket at the desired doses. One drop of 0.4% oxybuprocaine hydrochloride (Novesine, Sandoz) was instilled in each eye immediately before each set of pressure measurements.
Results are reported in Table 6, the ocular hypotensive activities of the tested compounds are expressed as IOP change at 60 and 120 minutes after topical administration versus vehicle and versus the basal IOP.

Compound: COC1=C(OC)C(=O)C(CCCCCCCCCCO[N+](=O)[O-])=C(C)C1=O [Compound (6), 10-(4,5-dimethoxy-2-methyl-3,6-dioxocyclohexa-1,4-dienyl)decyl nitrate]
- Delta vs basal (mmHg), systolic blood pressure [1]: 14 ± 3.8 mmHg
- efficacy in preventing L-NAME-induced hypertension after 5-day oral treatment [2]: counteracted L-NAME-induced hypertension
- ΔΔ (mmHg), IOP change versus vehicle and versus basal IOP ([3]; 60 min after topical administration): −7.4 ± 2.7 mmHg
- ΔΔ (mmHg), IOP change versus vehicle and versus basal IOP ([3]; 120 min after topical administration): −9.8 ± 2.0 mmHg
